Experimental data reported in paper PMC10287695, “Non-covalent inhibitors of thioredoxin glutathione reductase with schistosomicidal activity in vivo” (Nature Communications, 2023).
Several values for one entry are separate records, joined by “and”; a condition that tells them apart may be missing. Equal entries are not always repeated. Marks after values point to notes of the source that are not given here.

Tests used:
[1] = tested on: S. mansoni juvenile worms (21 days); experiment: Schistosomicidal activity ex vivo, juvenile worms (21 days); type: cell-based; settings: for LD50 ex vivo S. mansoni 21 days: juvenile worms, 48 h exposure
Procedure: Three-week old, female Swiss-Webster mice obtained from the Charles River were housed in the Comparative Research Center of Rush University Medical Center. Mice were infected by percutaneous tail exposure to about 200 S. mansoni or 50 S. japonicum cercaria for adult worms and about 1000 cercaria for juvenile S. mansoni worms through natural transdermal penetration of the cercariae for 1 h[81].
DMSO formulated compounds were diluted with phenol red free M199 medium or RPMI medium for NTS or juvenile and adult worms, respectively, at <1% DMSO final concentrations. NTS, juvenile and adult worms from overnight cultures were tested against compounds in triplicate. Controls were treated with DMSO alone or 5 µM AF as a positive control in appropriate medium. […] Schistosome viabilities in the presence of the compounds were assessed using this formula: % Viability = Averages of Test / Averages of DMSO Control x 100.

TGR [2] = target: T1, TGR (Schistosoma mansoni, UniProt Q962Y6); experiment: Reversibility by jump dilution; type: biochemical; settings: for % Activity (ID list), D0 / % Inhibition (ID list), D0: D0: diluted 1:100, activity determined immediately; for % Activity (ID list), D0 / % Inhibition (ID list), D0 / % Activity (ID list), D60 / % Inhibition (ID list), D60 / % Activity (ID list) / % Inhibition (ID list): list for plotting; for % Activity (ID list), D60 / % Inhibition (ID list), D60: D60: diluted 1:100, activity determined after 60 min; for % Activity, 0 min / % Activity, 60 min / % Activity, -15: relative to DMSO; for Inhibitor (rate), -15 / % Activity, -15: [-15]: 15 min preincubation inhibitor + TGR + NADPH, then activity determined, replicates; for % Activity (ID list) / % Inhibition (ID list): before dilution (-15)
T1 construct: made in house
T1 sequence (Q962Y6 1-598): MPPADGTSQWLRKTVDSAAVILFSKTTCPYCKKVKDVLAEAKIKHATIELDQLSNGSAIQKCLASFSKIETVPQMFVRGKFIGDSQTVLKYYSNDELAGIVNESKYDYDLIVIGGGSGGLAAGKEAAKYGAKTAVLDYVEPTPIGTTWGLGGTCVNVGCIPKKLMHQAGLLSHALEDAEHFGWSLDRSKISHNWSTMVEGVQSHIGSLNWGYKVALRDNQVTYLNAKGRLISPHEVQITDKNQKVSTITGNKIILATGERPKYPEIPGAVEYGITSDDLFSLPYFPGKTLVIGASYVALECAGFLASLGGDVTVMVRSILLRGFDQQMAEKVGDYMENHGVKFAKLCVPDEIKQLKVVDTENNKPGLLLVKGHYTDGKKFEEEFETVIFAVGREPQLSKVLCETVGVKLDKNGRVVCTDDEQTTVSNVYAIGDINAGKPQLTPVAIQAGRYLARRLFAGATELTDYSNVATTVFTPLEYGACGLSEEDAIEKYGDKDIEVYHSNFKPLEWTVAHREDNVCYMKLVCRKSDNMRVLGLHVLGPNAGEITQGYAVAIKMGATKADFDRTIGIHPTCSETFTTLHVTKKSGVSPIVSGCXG
Procedure: A reaction of 370 nM TGR, 100 µM NADPH, and 250 µM inhibitor was incubated for 15 min at room temperature. A 100x dilution of the reaction was made and the activity was determined immediately and after 60 min.

[3] = Cytotoxicity in mammalian cells (Cell Titer Glo); type: cell-based; settings: African green monkey, Vero cells
Procedure: Following overnight incubation, formulated DMSO-compound stock solutions were diluted with DMEM at <1% DMSO final concentrations. […] Vero cells treated similarly with different concentrations of PZQ, MZM and AF (Cayman Chemicals) were used as positive controls.

TGR [4] = target: T1, TGR; experiment: Thermal shift assay (TSA); type: binding; design: key to Avg. Tm / Tm, replicate 1-3: Tm in °C, from a 25–95 °C melt curve; settings: for Avg. Tm / Tm, replicate 1-3: TGR + 100 µM compound; for Avg. Tm, + 500 µM NADPH / Tm, replicate 1-3, + 500 µM NADPH: TGR + 100 µM compound + 500 µM NADPH; for Tm, replicate 1-3, + 500 µM NADPH / Tm, replicate 1-3: single replicates; for effect on Tm of oxidized TGR: without NADPH; for increase in the Tm of TGR in the presence of NADPH: 500 µM NADPH
Procedure: Samples were prepared by using a final concentration of 0.25 mg/ml TGR diluted in TGR reaction buffer to the desired volume. To evaluate reduced TGR, 500 µM NADPH was added. […] After the preincubation period, 20 µL samples were pipetted into a BioRad un-skirted PCR 96 well plate and sealed with MicroAmp^TM Optical Adhesive film. The plate was then centrifuged for 5 min at 1000 × g. TSA was carried out using a BioRad CFX Connect qPCR instrument with a melt curve setting of 25 − 95 °C, in increments of 0.5 °C/10 seconds. The SYBR green channel was used to detect fluorescence as the wavelength of flavin fluorescence overlaps with that of SYBR green. BioRad CFX Maestro 5.2 was used to analyze TSA data.

BmTrxR = BmTrxR (Brugia malayi, UniProt A0A1I9G0T9); experiment: B. malayi TrxR enzyme inhibition; type: biochemical
Procedure: Recombinant TGR, human TrxR1, B. malayi (Bm)TrxR and human GR proteins were expressed and purified as described[20],[69],[79]. The codon optimized sequence for P. falciparum (PfTrxR, https://www.ncbi.nlm.nih.gov/protein/CAA60574.1/) with an N-terminal 6-His tag was synthesized and inserted into pET15b (GenScript) and expressed in BL21 (DE3) cells and purified as described for human GR[20]. […] The reaction was started with addition of an equal volume of DTNB (6 mM) and NADPH (100 µM) and the increase in A412 during the first 3 min was recorded. […] Activity was initiated with the addition of 1 mM GSSG and 100 μM NADPH and initial rates of NADPH oxidation were monitored at 340 nm. The reactions were done in triplicate. The IC50 was calculated in GraphPad Prism.

[5] = [0, D0]: 15 min preincubation inhibitor + TGR + NADPH, diluted 1:100, then activity determined immediately
[6] = [60, D60]: 15 min preincubation inhibitor + TGR + NADPH, diluted 1:100, then activity determined after 60 min
[7] = 5 µM, relative to untreated control
[8] = 10 µM, relative to untreated control
[9] = 25 µM, relative to untreated control
[10] = 50 µM, relative to untreated control

Chain of BmTrxR (A0A1I9G0T9 entry or part of it, added parts left off): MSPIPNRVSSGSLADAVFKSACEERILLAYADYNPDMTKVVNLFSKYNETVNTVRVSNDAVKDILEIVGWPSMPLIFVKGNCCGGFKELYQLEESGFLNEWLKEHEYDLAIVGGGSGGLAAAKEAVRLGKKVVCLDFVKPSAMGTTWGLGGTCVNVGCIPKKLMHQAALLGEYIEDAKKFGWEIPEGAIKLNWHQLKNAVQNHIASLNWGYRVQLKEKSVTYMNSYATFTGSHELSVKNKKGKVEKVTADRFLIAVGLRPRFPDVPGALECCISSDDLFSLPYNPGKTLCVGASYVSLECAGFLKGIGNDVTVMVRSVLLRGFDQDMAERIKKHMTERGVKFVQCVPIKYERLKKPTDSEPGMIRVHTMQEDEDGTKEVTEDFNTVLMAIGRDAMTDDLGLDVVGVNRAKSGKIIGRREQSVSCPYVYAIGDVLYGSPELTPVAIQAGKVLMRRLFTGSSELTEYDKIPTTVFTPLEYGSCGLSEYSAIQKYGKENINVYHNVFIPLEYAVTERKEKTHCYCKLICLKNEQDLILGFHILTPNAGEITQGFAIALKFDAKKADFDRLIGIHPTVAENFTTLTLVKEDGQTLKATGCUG

CC(=O)OC[C@H]1O[C@@H]([S-])[C@H](OC(C)=O)[C@@H](OC(C)=O)[C@@H]1OC(C)=O.CCP(CC)CC.[Au+] [AF, auranofin, reference compound]
% viability ([1]; 23 day S. mansoni worms, 48 HR, Conc. 0.5 µM): 50.0296% | % viability ([1]; 23 day S. mansoni worms, 48 HR, Conc. 1 µM): 15.8933% | % viability ([1]; 23 day S. mansoni worms, 48 HR, Conc. 2.5 µM): 5.6364% | % viability ([1]; 23 day S. mansoni worms, 48 HR, Conc. 5 µM): 0.3335% | LD50 ex vivo S. mansoni 21 days [1]: 0.62 ± 0.01 µM | reversibility of TGR inhibition (TGR [2]; 250 µM inhibitor, 100-fold jump dilution): irreversible | % Activity (ID list), D0 (TGR [2]): 1.9% and -0.049% | % Inhibition (ID list), D0 (TGR [2]): 98.1% and 100.0% | % Activity (ID list), D60 (TGR [2]): 3.7% and -3.0% and -2.8% | % Inhibition (ID list), D60 (TGR [2]): 96.3% and 103.0% and 102.8% | % Activity, 0 min (TGR [2]; [5]): 1.94% and 1.91% and -0.04934% | % Activity, 60 min (TGR [2]; [6]): 3.69% and -3.0493% and -2.833% | Inhibitor (rate), -15 (TGR [2]; raw rate): 0.001018 and 0.001002 and 0.001033 | % Activity, -15 (TGR [2]): 0.7444% and 0.7656% and 0.7594% | % Activity (ID list) (TGR [2]): 0.744% and 0.8% and 0.759% | % Inhibition (ID list) (TGR [2]): 100.0%

C#CCN(Cc1nc(-c2ccccc2)oc1C)[C@@H]1C[C@@H]2C[C@H]([C@H]1C)C2(C)C [Compound 6]
viability at 5 µM ([1]; Schistosoma mansoni, 23 day S. mansoni worms, 48 HR, Conc. 5 µM): 73.2% | viability at 15 µM ([1]; Schistosoma mansoni, 23 day S. mansoni worms, 48 HR, Conc. 15 µM): 60.7% | viability at 30 µM ([1]; Schistosoma mansoni, 23 day S. mansoni worms, 48 HR, Conc. 30 µM): 56.8% | LD50 ex vivo S. mansoni 21 days [1]: >30^a µM | viability at 24 h, 1 µM ([3]; Conc. 1 µM): 99.1% | viability at 24 h, 5 µM ([3]; Conc. 5 µM): 99% | viability at 24 h, 10 µM ([3]; Conc. 10 µM): 91.1% | viability at 24 h, 25 µM ([3]; Conc. 25 µM): 86.8% | viability at 24 h, 50 µM ([3]; Conc. 50 µM): 79.9% | viability at 24 h, 100 µM ([3]; Conc. 100 µM): 63.9% | % Activity (ID list), D0 (TGR [2]): 75.6% and 75.7% and 80.1% | % Inhibition (ID list), D0 (TGR [2]): 24.4% and 24.3% and 19.9% | % Activity (ID list), D60 (TGR [2]): 78.0% and 78.9% and 78.3% | % Inhibition (ID list), D60 (TGR [2]): 22.0% and 21.1% and 21.7% | Inhibitor (rate), 0 min (TGR [2]; [0, D0]: 15 min preincubation inhibitor + TGR + NADPH, diluted 1:100, then activity determined immediately, raw rate): 0.03741 and 0.03869 and 0.04167 | % Activity, 0 min (TGR [2]; [5]): 75.6216% and 75.6995% and 80.0576% | Inhibitor (rate), 60 min (TGR [2]; [60, D60]: 15 min preincubation inhibitor + TGR + NADPH, diluted 1:100, then activity determined after 60 min, raw rate): 0.03652 and 0.03852 and 0.03804 | % Activity, 60 min (TGR [2]; [6]): 78.0175% and 78.8698% and 78.3361% | Inhibitor (rate), -15 (TGR [2]; raw rate): 0.0007205 and 0.001179 and -0.0005968 | % Activity, -15 (TGR [2]): 1.808% and 2.913% and -1.39% | % Activity (ID list) (TGR [2]): 2.9% and -1.4% | % Inhibition (ID list) (TGR [2]): 98.2% and 97.1% and 101.4%

CC1C(NCc2cn(C3OCC(O)C(O)C3O)c3ccccc23)CC2CC1C2(C)C (stereo not drawn) [Compound 9]
viability at 24 h, 5 µM [3, 7]: 92.7% | viability at 24 h, 10 µM [3, 8]: 90.7% | viability at 24 h, 25 µM [3, 9]: 89.9% | viability at 24 h, 35 µM ([3]; relative to untreated control): 89.6% | viability at 24 h, 50 µM [3, 10]: 83.5% | shift of Tm of reduced TGR (TGR [4]; 400uM compound): 1.5 °C | shift of Tm of reduced TGR (TGR [4]; 1mM compound): 3 °C | Avg. Tm (TGR [4]): 74.8 | Avg. Tm, + 500 µM NADPH (TGR [4]): 68 | Tm, replicate 1-3, + 500 µM NADPH (TGR [4]; in °C (unit assumed)): 67.5 and 68 and 69 | Tm, replicate 1-3 (TGR [4]): 74.5 (2×) and 75 | effect on Tm of oxidized TGR (TGR [4]): doesn’t shift the Tm | IC50 (BmTrxR): 13.7 ± 1.03 µM | inhibition at 10 µM (BmTrxR; BmTrxR, 10 µM compound, mean of 3 replicates, read-out: % inhibition): 47.6% | inhibition at 25 µM (BmTrxR; BmTrxR, 25 µM compound, mean of 3 replicates, read-out: % inhibition): 70.1% | inhibition at 50 µM (BmTrxR; BmTrxR, 50 µM compound, mean of 3 replicates, read-out: % inhibition): 83.3%

C[C@@H]1[C@H]2C[C@@H](C[C@H]1NCc1cc(-c3ccccc3)[nH]n1)C2(C)C [Compound 11]
increase in the Tm of TGR in the presence of NADPH (TGR [4]): no effect | Avg. Tm (TGR [4]): 73.5 | Avg. Tm, + 500 µM NADPH (TGR [4]): 63.67 | Tm, replicate 1-3, + 500 µM NADPH (TGR [4]): 63.5 (2×) and 64 | Tm, replicate 1-3 (TGR [4]; in °C (unit assumed)): 73.5 | effect on Tm of oxidized TGR (TGR [4]): no effect

C[C@@H]1[C@H]2C[C@@H](C[C@H]1NCc1nc3ccccc3n1C)C2(C)C [Compound 12]
increase in the Tm of TGR in the presence of NADPH (TGR [4]): no effect | Avg. Tm (TGR [4]): 73.5 | Avg. Tm, + 500 µM NADPH (TGR [4]): 64 | Tm, replicate 1-3, + 500 µM NADPH (TGR [4]; in °C (unit assumed)): 64 | Tm, replicate 1-3 (TGR [4]; in °C (unit assumed)): 73.5 | effect on Tm of oxidized TGR (TGR [4]): no effect

C[C@@H]1N=C(c2ccccc2Cl)c2cc([N+](=O)[O-])ccc2NC1=O [MZM, meclonazepam, reference compound]
LD50 ex vivo S. mansoni 21 days [1]: >50^a µM | viability at 24 h, 5 µM [3, 7]: 99.8% | viability at 24 h, 10 µM [3, 8]: 98.1% | viability at 24 h, 25 µM [3, 9]: 92.9% | viability at 24 h, 35 µM ([3]; relative to untreated control): 90.8% | viability at 24 h, 50 µM [3, 10]: 87%

O=C(C1CCCCC1)N1CC(=O)N2CCc3ccccc3C2C1 (stereo not drawn) [PZQ, praziquantel]
LD50 ex vivo S. mansoni 21 days [1]: >50^a µM | viability at 24 h, 5 µM [3, 7]: 97.1% | viability at 24 h, 10 µM [3, 8]: 98.3% | viability at 24 h, 25 µM [3, 9]: 92.3% | viability at 24 h, 35 µM ([3]; relative to untreated control): 89.1% | viability at 24 h, 50 µM [3, 10]: 88.9%
